Measured values taken from the supplement of paper PMC10307832.

What was measured:
Test in all cases: relative viability (nuclei count vs DMSO), 5 days (fraction); higher = more cells survive
LC-2-ad = tested on: LC-2-ad
In short: (§1)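 Lung cancer cell lines in 1536-well plates were dosed by pin tool the day after seeding, either with one drug alone or with a fixed anchor-drug dose plus five library-drug doses (not always all listed) in √10 steps. After 5 days, cells were fixed and their nuclei stained in one step (final 0.05% Triton X-100, 1% formaldehyde, 1 ug/ml Hoechst), then counted on 4× images. Relative viability is the nuclei count in treated wells divided by that in vehicle wells. Values are medians of duplicate plates.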

COR-L23 = tested on: COR-L23
In short: as §1

LU99A = tested on: LU99A
In short: as §1

NCI-H2347 = tested on: NCI-H2347
In short: as §1

NCI-H1651 = tested on: NCI-H1651
In short: as §1

NCI-H1355 = tested on: NCI-H1355
In short: as §1

EPLC-272H = tested on: EPLC-272H
In short: as §1

UMC-11 = tested on: UMC-11
In short: as §1

HARA = tested on: HARA
In short: as §1

NCI-H2126 = tested on: NCI-H2126
In short: as §1

NCI-H1993 = tested on: NCI-H1993
In short: as §1

NCI-H650 = tested on: NCI-H650
In short: as §1

HOP-62 = tested on: HOP-62
In short: as §1

NCI-H1915 = tested on: NCI-H1915
In short: as §1

PC-14 = tested on: PC-14
In short: as §1

NCI-H838 = tested on: NCI-H838
In short: as §1

ABC-1 = tested on: ABC-1
In short: as §1

NCI-H2023 = tested on: NCI-H2023
In short: as §1

HCC-15 = tested on: HCC-15
In short: as §1

NCI-H2085 = tested on: NCI-H2085
In short: as §1

SW 1573 = tested on: SW 1573
In short: as §1

For `COc1cc2nccc(Oc3ccc(NC(=O)Nc4cc(C)on4)c(Cl)c3)c2cc1OC` [Tivozanib] + COc1cc2c(Oc3ccc(NC(=O)C4(C(=O)Nc5ccc(F)cc5)CC4)cc3F)ccnc2cc1OCCCN1CCOCC1 [Foretinib] (partner 0.25 µM), the relative viability (LC-2-ad; first compound 0.005 µM) was 0.917, the relative viability (LC-2-ad; first compound 0.01581 µM) was 1.02 and the relative viability (LC-2-ad; first compound 0.05 µM) was 0.857. It also gave a relative viability (LC-2-ad; first compound 0.1581 µM) of 0.972, a relative viability (LC-2-ad; first compound 0.5 µM) of 0.788 and a relative viability (COR-L23; first compound 0.005 µM) of 0.929. For the same molecule, the relative viability (COR-L23; first compound 0.01581 µM) was 0.943, the relative viability (COR-L23; first compound 0.05 µM) was 1.07 and the relative viability (COR-L23; first compound 0.1581 µM) was 0.976. It also gave a relative viability (COR-L23; first compound 0.5 µM) of 0.787, a relative viability (LU99A; first compound 0.005 µM) of 0.663 and a relative viability (LU99A; first compound 0.01581 µM) of 0.747. The relative viability (LU99A; first compound 0.05 µM) was 0.836, the relative viability (LU99A; first compound 0.1581 µM) was 0.653 and the relative viability (LU99A; first compound 0.5 µM) was 0.812. It also gave a relative viability (NCI-H2347; first compound 0.005 µM) of 0.905, a relative viability (NCI-H2347; first compound 0.01581 µM) of 1.09 and a relative viability (NCI-H2347; first compound 0.05 µM) of 0.937. It also gave a relative viability (NCI-H2347; first compound 0.5 µM) of 0.845, a relative viability (NCI-H1651; first compound 0.005 µM) of 0.784 and a relative viability (NCI-H1651; first compound 0.01581 µM) of 0.78. The relative viability (NCI-H1651; first compound 0.05 µM) was 0.842, the relative viability (NCI-H1651; first compound 0.1581 µM) was 0.645 and the relative viability (NCI-H1651; first compound 0.5 µM) was 0.831. The relative viability (NCI-H1355; first compound 0.005 µM) was 0.937, the relative viability (NCI-H1355; first compound 0.01581 µM) was 0.978 and the relative viability (NCI-H1355; first compound 0.05 µM) was 0.975. The relative viability (NCI-H1355; first compound 0.1581 µM) was 0.929, the relative viability (NCI-H1355; first compound 0.5 µM) was 0.966 and the relative viability (EPLC-272H; first compound 0.005 µM) was 0.61. For the same molecule, the relative viability (EPLC-272H; first compound 0.01581 µM) was 0.76, the relative viability (EPLC-272H; first compound 0.05 µM) was 0.724 and the relative viability (EPLC-272H; first compound 0.1581 µM) was 0.694. The relative viability (EPLC-272H; first compound 0.5 µM) was 0.655, the relative viability (UMC-11; first compound 0.005 µM) was 1.07 and the relative viability (UMC-11; first compound 0.01581 µM) was 1.04. It also gave a relative viability (UMC-11; first compound 0.05 µM) of 1.1, a relative viability (UMC-11; first compound 0.5 µM) of 1.01 and a relative viability (HARA; first compound 0.005 µM) of 0.859. For the same molecule, the relative viability (HARA; first compound 0.01581 µM) was 0.855, the relative viability (HARA; first compound 0.05 µM) was 0.928 and the relative viability (HARA; first compound 0.1581 µM) was 0.952. The relative viability (HARA; first compound 0.5 µM) was 0.905, the relative viability (NCI-H2126; first compound 0.005 µM) was 1.24 and the relative viability (NCI-H2126; first compound 0.01581 µM) was 1.11. For the same molecule, the relative viability (NCI-H2126; first compound 0.05 µM) was 1.18, the relative viability (NCI-H2126; first compound 0.5 µM) was 1.25 and the relative viability (NCI-H1993; first compound 0.005 µM) was 0.632. For the same molecule, the relative viability (NCI-H1993; first compound 0.01581 µM) was 0.712, the relative viability (NCI-H1993; first compound 0.05 µM) was 0.757 and the relative viability (NCI-H1993; first compound 0.1581 µM) was 0.733. For the same molecule, the relative viability (NCI-H1993; first compound 0.5 µM) was 0.722, the relative viability (NCI-H650; first compound 0.005 µM) was 1 and the relative viability (NCI-H650; first compound 0.01581 µM) was 1.02. The relative viability (NCI-H650; first compound 0.05 µM) was 0.994, the relative viability (NCI-H650; first compound 0.1581 µM) was 1.02 and the relative viability (NCI-H650; first compound 0.5 µM) was 0.928. For the same molecule, the relative viability (HOP-62; first compound 0.005 µM) was 1.18, the relative viability (HOP-62; first compound 0.01581 µM) was 1.05 and the relative viability (HOP-62; first compound 0.05 µM) was 1.12. For the same molecule, the relative viability (HOP-62; first compound 0.1581 µM) was 1.11, the relative viability (HOP-62; first compound 0.5 µM) was 1.06 and the relative viability (NCI-H1915; first compound 0.005 µM) was 1.08. The relative viability (NCI-H1915; first compound 0.01581 µM) was 1.07, the relative viability (NCI-H1915; first compound 0.05 µM) was 1.1 and the relative viability (NCI-H1915; first compound 0.1581 µM) was 1.13. It also gave a relative viability (NCI-H1915; first compound 0.5 µM) of 1.09, a relative viability (PC-14; first compound 0.005 µM) of 0.911 and a relative viability (PC-14; first compound 0.01581 µM) of 0.959. For the same molecule, the relative viability (PC-14; first compound 0.05 µM) was 1.01, the relative viability (PC-14; first compound 0.1581 µM) was 1.09 and the relative viability (PC-14; first compound 0.5 µM) was 0.904. For the same molecule, the relative viability (NCI-H838; first compound 0.005 µM) was 1.06, the relative viability (NCI-H838; first compound 0.01581 µM) was 0.952 and the relative viability (NCI-H838; first compound 0.05 µM) was 1.05. The relative viability (NCI-H838; first compound 0.5 µM) was 1.03, the relative viability (ABC-1; first compound 0.005 µM) was 1.01 and the relative viability (ABC-1; first compound 0.01581 µM) was 1.21. It also gave a relative viability (ABC-1; first compound 0.05 µM) of 1, a relative viability (ABC-1; first compound 0.1581 µM) of 1.06 and a relative viability (ABC-1; first compound 0.5 µM) of 1.02. For the same molecule, the relative viability (NCI-H2023; first compound 0.005 µM) was 0.856, the relative viability (NCI-H2023; first compound 0.01581 µM) was 0.703 and the relative viability (NCI-H2023; first compound 0.05 µM) was 0.989. The relative viability (NCI-H2023; first compound 0.1581 µM) was 0.825, the relative viability (NCI-H2023; first compound 0.5 µM) was 0.697 and the relative viability (HCC-15; first compound 0.005 µM) was 0.915. The relative viability (HCC-15; first compound 0.01581 µM) was 0.994, the relative viability (HCC-15; first compound 0.05 µM) was 0.993 and the relative viability (HCC-15; first compound 0.1581 µM) was 1.03. It also gave a relative viability (HCC-15; first compound 0.5 µM) of 0.977, a relative viability (NCI-H2085; first compound 0.005 µM) of 0.883 and a relative viability (NCI-H2085; first compound 0.01581 µM) of 0.884. For the same molecule, the relative viability (NCI-H2085; first compound 0.05 µM) was 0.831, the relative viability (NCI-H2085; first compound 0.1581 µM) was 1.02 and the relative viability (NCI-H2085; first compound 0.5 µM) was 1.01. For the same molecule, the relative viability (SW 1573; first compound 0.005 µM) was 0.784, the relative viability (SW 1573; first compound 0.01581 µM) was 0.828 and the relative viability (SW 1573; first compound 0.05 µM) was 0.827. The relative viability (SW 1573; first compound 0.1581 µM) was 0.886 and the relative viability (SW 1573; first compound 0.5 µM) was 0.903.
